Species: Rattus norvegicus
Test: DrugMatrix - Regimen: Daily Repeat
Assay type: toxicity, organism-based, Sprague-Dawley
Parameters: regimen Daily Repeat, gender Male, age 6-8 weeks
Settings: in vivo, iv, […], vehicle 100 % SALINE; for ALANINE AMINOTRANSFERASE / ALBUMIN / ALKALINE PHOSPHATASE / ASPARTATE AMINOTRANSFERASE / BLOOD UREA NITROGEN / CARBON DIOXIDE / CHLORIDE / CHOLESTEROL / CREATINE PHOSPHOKINASE / CREATININE / GLUCOSE / LACTATE DEHYDROGENASE / LIPASE / PHOSPHORUS / POTASSIUM / SODIUM / TOTAL BILIRUBIN / TOTAL PROTEIN / URIC ACID: tissue Plasma; for ABSOLUTE BASOPHIL / ABSOLUTE EOSINOPHIL / ABSOLUTE LYMPHOCYTE / ABSOLUTE MONOCYTE / ABSOLUTE SEGMENTED NEUTROPHIL / BASOPHIL / EOSINOPHIL / ERYTHROCYTE COUNT / HEMATOCRIT / HEMOGLOBIN / LEUKOCYTE COUNT / LYMPHOCYTE / MEAN CORPUSCULAR HEMOGLOBIN / MEAN CORPUSCULAR HEMOGLOBIN CONCENTRATION / MEAN CORPUSCULAR VOLUME / MONOCYTE / NEUTROPHIL / NUCLEATED RED BLOOD CELLS / PLATELET COUNT: tissue Blood
[1] = 72 h, dose 0.24 mg/Kg, dose level Low, time 3 day
[2] = 72 h, dose 2.5 mg/Kg, dose level High, time 3 day
[3] = 120 h, dose 0.24 mg/Kg, dose level Low, time 5 day
[4] = 120 h, dose 2.5 mg/Kg, dose level High, time 5 day

CC[C@@]1(O)C(=O)OCc2c1cc1n(c2=O)Cc2cc3ccccc3nc2-1 [CAMPTOTHECIN]
ALANINE AMINOTRANSFERASE [1]: 60 u/L
ALBUMIN [1]: 4.3 G/DL
ALKALINE PHOSPHATASE [1]: 408 u/L
ASPARTATE AMINOTRANSFERASE [1]: 104.67 u/L
BLOOD UREA NITROGEN [1]: 12.67 mg/dL
CARBON DIOXIDE [1]: 33.33 mmol/L
CHLORIDE [1]: 101.33 MEQ/L
CHOLESTEROL [1]: 75 mg/dL
CREATINE PHOSPHOKINASE [1]: 727.67 u/L
CREATININE [1]: 0.15 mg/dL
GLUCOSE [1]: 138.33 mg/dL
LACTATE DEHYDROGENASE [1]: 388 u/L
LIPASE [1]: 11 u/L
PHOSPHORUS [1]: 11.93 mg/dL
POTASSIUM [1]: 6.3 MEQ/L
SODIUM [1]: 145.33 MEQ/L
TOTAL BILIRUBIN [1]: 0.17 mg/dL
TOTAL PROTEIN [1]: 5.93 G/DL
URIC ACID [1]: 1.33 mg/dL
ALANINE AMINOTRANSFERASE [2]: 37.33 u/L
ALBUMIN [2]: 4.2 G/DL
ALKALINE PHOSPHATASE [2]: 430.33 u/L
ASPARTATE AMINOTRANSFERASE [2]: 79.33 u/L
BLOOD UREA NITROGEN [2]: 13 mg/dL
CARBON DIOXIDE [2]: 33 mmol/L
CHLORIDE [2]: 101.33 MEQ/L
CHOLESTEROL [2]: 73.67 mg/dL
CREATINE PHOSPHOKINASE [2]: 318.33 u/L
CREATININE [2]: 0.16 mg/dL
GLUCOSE [2]: 153.33 mg/dL
LACTATE DEHYDROGENASE [2]: 136.33 u/L
LIPASE [2]: 10.33 u/L
PHOSPHORUS [2]: 10.83 mg/dL
POTASSIUM [2]: 5.76 MEQ/L
SODIUM [2]: 142.73 MEQ/L
TOTAL BILIRUBIN [2]: 0.17 mg/dL
TOTAL PROTEIN [2]: 6.1 G/DL
URIC ACID [2]: 1.63 mg/dL
ABSOLUTE BASOPHIL [3]: 0 CELLS/uL
ABSOLUTE EOSINOPHIL [3]: 45.33 CELLS/uL
ABSOLUTE LYMPHOCYTE [3]: 11856.67 CELLS/uL
ABSOLUTE MONOCYTE [3]: 131.67 CELLS/uL
ABSOLUTE SEGMENTED NEUTROPHIL [3]: 1233 CELLS/uL
BASOPHIL [3]: 0%
EOSINOPHIL [3]: 0.33%
ERYTHROCYTE COUNT [3]: 5.71 x10E6/uL
HEMATOCRIT [3]: 35.9%
HEMOGLOBIN [3]: 14.03 G/DL
LEUKOCYTE COUNT [3]: 13.27 x10E3/uL
LYMPHOCYTE [3]: 89.33%
MEAN CORPUSCULAR HEMOGLOBIN [3]: 24.57 pg
MEAN CORPUSCULAR HEMOGLOBIN CONCENTRATION [3]: 39.07 G/DL
MEAN CORPUSCULAR VOLUME [3]: 62.87 fL
MONOCYTE [3]: 1%
NEUTROPHIL [3]: 9.33%
NUCLEATED RED BLOOD CELLS [3]: 0 /100WBC
PLATELET COUNT [3]: 1215 x10E3/uL
ABSOLUTE BASOPHIL [4]: 0 CELLS/uL
ABSOLUTE EOSINOPHIL [4]: 0 CELLS/uL
ABSOLUTE LYMPHOCYTE [4]: 7405.33 CELLS/uL
ABSOLUTE MONOCYTE [4]: 102.67 CELLS/uL
ABSOLUTE SEGMENTED NEUTROPHIL [4]: 225.33 CELLS/uL
BASOPHIL [4]: 0%
EOSINOPHIL [4]: 0%
ERYTHROCYTE COUNT [4]: 5.35 x10E6/uL
HEMATOCRIT [4]: 31.67%
HEMOGLOBIN [4]: 12.13 G/DL
LEUKOCYTE COUNT [4]: 7.73 x10E3/uL
LYMPHOCYTE [4]: 95.67%
MEAN CORPUSCULAR HEMOGLOBIN [4]: 22.77 pg
MEAN CORPUSCULAR HEMOGLOBIN CONCENTRATION [4]: 38.33 G/DL
MEAN CORPUSCULAR VOLUME [4]: 59.3 fL
MONOCYTE [4]: 1.33%
NEUTROPHIL [4]: 3%
NUCLEATED RED BLOOD CELLS [4]: 0 /100WBC
PLATELET COUNT [4]: 1318.33 x10E3/uL
ALANINE AMINOTRANSFERASE [3]: 43.33 u/L
ALBUMIN [3]: 4.03 G/DL
ALKALINE PHOSPHATASE [3]: 352 u/L
ASPARTATE AMINOTRANSFERASE [3]: 70 u/L
BLOOD UREA NITROGEN [3]: 14.67 mg/dL
CARBON DIOXIDE [3]: 29.33 mmol/L
CHLORIDE [3]: 102 MEQ/L
CHOLESTEROL [3]: 64.33 mg/dL
CREATINE PHOSPHOKINASE [3]: 241.67 u/L
CREATININE [3]: 0.18 mg/dL
GLUCOSE [3]: 201.67 mg/dL
LACTATE DEHYDROGENASE [3]: 147.33 u/L
LIPASE [3]: 10.33 u/L
PHOSPHORUS [3]: 11.03 mg/dL
POTASSIUM [3]: 5.31 MEQ/L
SODIUM [3]: 141.3 MEQ/L
TOTAL BILIRUBIN [3]: 0.2 mg/dL
TOTAL PROTEIN [3]: 5.93 G/DL
URIC ACID [3]: 1.33 mg/dL
ALANINE AMINOTRANSFERASE [4]: 42.67 u/L
ALBUMIN [4]: 4.03 G/DL
ALKALINE PHOSPHATASE [4]: 247 u/L
ASPARTATE AMINOTRANSFERASE [4]: 101 u/L
BLOOD UREA NITROGEN [4]: 17 mg/dL
CARBON DIOXIDE [4]: 22.33 mmol/L
CHLORIDE [4]: 103.33 MEQ/L
CHOLESTEROL [4]: 56 mg/dL
CREATINE PHOSPHOKINASE [4]: 674.67 u/L
CREATININE [4]: 0.2 mg/dL
GLUCOSE [4]: 184 mg/dL
LACTATE DEHYDROGENASE [4]: 581 u/L
LIPASE [4]: 10.33 u/L
PHOSPHORUS [4]: 12.4 mg/dL
POTASSIUM [4]: 6.08 MEQ/L
SODIUM [4]: 142.1 MEQ/L
TOTAL BILIRUBIN [4]: 0.13 mg/dL
TOTAL PROTEIN [4]: 6.03 G/DL
URIC ACID [4]: 1.8 mg/dL

From ChEMBL document CHEMBL3885881, “DrugMatrix”
